Tests used:
CYP3A4 = CYP3A4 (Homo sapiens (Human), UniProt P08684); assay: CYP inhibition test, pooled human hepatic microsome, terfenedine hydroxylation; format: in vitro ADME; conditions: substrate terfenedine
Procedure: Using commercially available pooled human hepatic microsome, and employlng, as markers, 7-ethoxyresorufin O-deethylation (CYP1A2), tolbutamide methyl-hydroxylation (CYP2C9), mephenyloin 4′-hydroxylation (CYP2C19), dextromethorphan O-demethylation (CYP2D6), and terfenedine hydroxylation as typical substrate metabolism reactions of human main five CYP enzyme forms (CYP1A2, 2C9, 2C19, 2D6, 3A4), an inhibitory degree of each metabolite production amount by a test compound was assessed.
The reaction conditions were as follows: substrate, 0.5 μmol/L ethoxyresorufin (CYP1A2), 100 μmol/L tolbutamide (CYP2C9), 50 μmol/L S-mephenitoin (CYP2C19), 5 μmol/L dextromethorphan (CYP2D6), 1 μmol/L terfenedine (CYP3A4) reaction time, 15 minutes; reaction temperature, 37° C; enzyme, pooled human hepatic microsome 0.2 mg protein/mL; test drug concentration, 1.0, 5.0, 10, 20 μmol/L (four points).
Each five kinds of substrates, human hepatic microsome, or a test drug in 50 mmol/L Hepes buffer as a reaction solution was added to a 96-well plate at the composition as described above, NADPH, as a cofactor was added to initiate metabolism reactions as markers and, after the incubation at 37° C. for 15 minutes, a methanol/acetonitrile=1/1 (v/v) solution was added to stop the reaction. After the centrifugation at 3000 rpm for 15 minutes, resorufin (CYP1A2 metabolite) in the supernatant was quantified by a fluorescent multilabel counter and tributamide hydroxide (CYP2CP metabolite), mephenyloin 4′ hydroxide (CYP2C19 metabolite), […] (CYP2D6 metabolite), and terfenadine alcohol (CYP3A4 metabolite) were quantified by LC/MS/MS.

rat P2X3 receptor = rat P2X3 receptor (Rattus norvegicus (Rat), UniProt P49654); assay: Evaluation of rat P2X3 receptor inhibitory activity in the presence of rat serum albumin (1% RSA); format: cell-based
Procedure: Rat P2X3 receptor gene (GenBank accession number NM_031075) was expressed in C6BU-1 cell. The cells stably expressing rat P2X3 were seeded in a 96-well microtiter plate at a :concentration of 8000 cells/well and cultured in the medium (8.3% fetal bovine serum, 8.3% horse serum, 1% antibiotic and antifungal in DMEM) for one day at 37° C. under 5% carbon dioxide atmosphere. In transiently expressing system, the C6BU-1 cells were seeded in a 96-well microtiter plate at a concentration of 2500 cells/well and cultured in the medium for one day at 37° C. under 5% carbon dioxide atmosphere. The plasmid was transfected into the cells using transfection reagent FuGENE6 (Roche). The transfected cells were cultured in the medium for one day at 37° C. under 5% carbon dioxide atmosphere. […] Measurement of fluorescence intensity by FDSS 3000 was started, and 40 μL of DMSO solutions containing 1% RSA (final concentrations) and different concentrations of the test compound as prepared by dilution with dilution buffer (20 mM HEPES, 137 mM NaCl, 2.7 mM KCl, 0.9 mM MgCl2, 5.0 mM CaCl2, 5.0 mM D-glucose, 2.5 mM probenecid, 0.1% Pluronic F-127, pH 7.5) were dispensed to each well through the built-in automatic dispenser. Five minutes after, 50 nM ATP solution (50 μL) prepared by dilution with the dilution buffer was dispensed through the built-in automatic dispenser, and the measurement of fluorescence intensity was continued for 3 min. For each well, the specific maximum fluorescence intensity was calculated as the ratio of the maximum fluorescence intensity after addition of the ATP solution to the fluorescence intensity at the starting of the measurement. […] FDSS software (Hamamatsu Photonics K.K.) was used for calculation of the specific maximum fluorescence intensity. IC50 was calculated using Microsoft Excel (Microsoft Corporation) and XLfit (idbs Ltd.).

[1] = Bioavailability (BA) test; format: in vivo; conditions: plasma; mice or SD rats, oral vs intravenous AUC
Procedure: (1) Animals: Mice or SD rats were used
(2) Breeding conditions: Mice or SD rats were allowed to freely take solid food and sterilized tap water.
(3) Dose and grouping: orally or intravenously administered at a predetermined dose; grouping was as follows (Dose depends one the compound) • Oral administration: 0.3 to 30 mg/kg (n=2 to 3) • Intravenous administration: 0.5 to 10 mg/kg (n=2 to 3)
(4) Preparation of dosing solution: for oral administration, in a solution or a suspension state: for intravenous administration, in a solubilized state
(5) Administration method: in oral administration, forcedly administer into ventriculus with oral probe; in intravenous administration, administer from caudal vein with a needle-equipped syringe
(6) Evaluation items: blood was collected over time, and the plasma concentration of drug was measured by LC/MS/MS
(7) Statistical analysis: regarding the transition of the plasma concentration or the present compound, the area under the plasma concentration-time curve (AUC) was calculated by non-linear least squares program WinNonlin (Registered trade name), and the bioavailability (BA) was calculated the AUCs of the oral administration group and intravenous administration group

serum = assay: Protein binding test (equilibrium dialysis, serum); format: in vitro ADME; conditions: 37° C., 24 hours, 2 μg/mL
Procedure: The unbound fraction the present compound in serum was measured using serum of various species.
The reactive conditions are as follows: Evaluation method, Equilibrium dialysis; Reaction time, 24 hours; Reaction temperature, 37° C.; Concentration of the present compound, 2 μg/mL.
The test solution was added to each serum and the mixture was agitated to prepare the serum samples at the concentration mentioned above. Each serum sample was added into one side or the cell and phosphate buffered saline (PBS) was added into the other side to perform equilibrium dialysis at 37° C. for 24 hours. Then, the concentration of the compounds in the samples that were obtained from both sides was measured by LC/MS/MS.
(Result) The ratio of PBS concentration to serum concentration is expressed as unbound fraction.

Chain of CYP3A4 (P08684 whole entry): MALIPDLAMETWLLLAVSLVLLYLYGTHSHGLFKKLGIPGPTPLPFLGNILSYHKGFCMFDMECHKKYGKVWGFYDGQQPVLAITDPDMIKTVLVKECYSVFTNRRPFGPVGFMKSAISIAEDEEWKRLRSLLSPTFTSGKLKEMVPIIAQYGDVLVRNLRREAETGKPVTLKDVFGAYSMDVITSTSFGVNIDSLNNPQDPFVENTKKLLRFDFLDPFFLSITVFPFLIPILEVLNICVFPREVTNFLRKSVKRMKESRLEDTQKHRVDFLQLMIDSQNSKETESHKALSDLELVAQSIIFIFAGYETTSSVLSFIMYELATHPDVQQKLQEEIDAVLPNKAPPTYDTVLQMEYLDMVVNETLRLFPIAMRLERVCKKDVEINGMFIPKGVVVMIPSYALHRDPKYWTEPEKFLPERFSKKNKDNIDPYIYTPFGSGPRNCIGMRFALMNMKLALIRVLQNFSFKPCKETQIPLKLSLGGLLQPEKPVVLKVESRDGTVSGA
Chain of rat P2X3 receptor (P49654 whole entry): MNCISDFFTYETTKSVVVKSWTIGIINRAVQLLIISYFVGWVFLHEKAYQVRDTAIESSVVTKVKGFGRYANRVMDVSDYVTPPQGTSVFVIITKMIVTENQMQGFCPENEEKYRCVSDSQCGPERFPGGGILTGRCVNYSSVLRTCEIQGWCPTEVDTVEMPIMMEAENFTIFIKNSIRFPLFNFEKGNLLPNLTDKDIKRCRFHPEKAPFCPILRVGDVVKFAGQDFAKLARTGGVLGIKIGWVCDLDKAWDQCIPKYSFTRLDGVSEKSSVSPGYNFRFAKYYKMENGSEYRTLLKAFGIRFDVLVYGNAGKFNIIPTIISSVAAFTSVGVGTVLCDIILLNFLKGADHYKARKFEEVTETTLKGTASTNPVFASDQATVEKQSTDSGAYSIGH

CCn1c(=O)[nH]/c(=N\c2ccc(Oc3ccnc(C(=O)O)c3)cc2)n(Cc2ccc(Cl)cc2)c1=O [Compound I-1788]
IC50 (CYP3A4): > 20000 nM
rat P2X3 (+RSA) IC50 (rat P2X3 receptor): 59 nM
bioavailability [1]: 31%

C[C@@H](Cn1c(=O)[nH]/c(=N\c2ccc(OCC3CC3)cc2)n(Cc2ccc(Cl)cc2)c1=O)C(=O)O [Compound I-0837]
IC50 (CYP3A4): > 20000 nM
rat P2X3 (+RSA) IC50 (rat P2X3 receptor): 44 nM
unbound fraction (ratio of PBS concentration to serum concentration) (serum): 2.1%
bioavailability [1]: 46%

O=c1[nH]/c(=N\c2ccc(Oc3ccon3)cc2)n(Cc2ccc(Cl)cc2)c(=O)n1CC(CO)CO [Compound I-2291]
IC50 (CYP3A4): > 20000 nM
rat P2X3 (+RSA) IC50 (rat P2X3 receptor): 20 nM
unbound fraction (ratio of PBS concentration to serum concentration) (serum): 4.5%
bioavailability [1]: 83%

Reference: patent publication US9718790B2, “Triazine derivative and pharmaceutical composition having an analgesic activity comprising the same” (SHIONOGI & CO., LTD., priority 2010, dated 2017)
